Measurements from patent US20240246920A1, “TRIAZOLE DERIVATIVES WITH ANTIFUNGAL ACTIVITY” (King's College London, priority 2020, published 2024).
Converted amounts (≈) assume the structure as drawn. Where two headings read alike, the source gives them in different places.

How the values were obtained:
C. glabrata NCPF8018 = assay: Candida panel MIC, serial dilution in 96-well plates; assay type: cell-based, Candida glabrata; details: Nakaseomyces glabratus
Outline: (§1)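 MIC taken as lowest concentration inhibiting growth ≥50% relative to drug-free control, from OD530 after 24 hours at 37° C. Fungi at 0.5-5×10^5/mL were exposed to serially diluted compound in RPMI 1640/MOPS/2% glucose medium adjusted to pH 7.0.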

C. krusei NCPF3876 = assay: microbe, parasite or virus in culture; assay type: cell-based, Candida krusei; details: Pichia kudriavzevii
Outline: as §1

C. parapsilosis NCPF3209 = assay: microbe, parasite or virus in culture; assay type: cell-based, Candida parapsilosis; details: Lodderomyces parapsilosis
Outline: as §1

Candida auris TDG2211 = assay: microbe, parasite or virus in culture; assay type: cell-based; details: Candidozyma auris
Outline: (§2)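 MIC = lowest concentration inhibiting growth ≥50% relative to drug-free control, read by OD530 nm after 24 h at 37° C. Medium: RPMI 1640/MOPS/2% glucose, pH 7.0. Inoculum 0.5-5×10^5/mL.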

Candida auris TDG2506 = assay: microbe, parasite or virus in culture; assay type: cell-based; details: Candidozyma auris
Outline: as §2

C. auris TDG1912 = assay: Candida panel MIC, serial dilution in 96-well plates; assay type: cell-based; details: Candidozyma auris, TDG1912; Table 4; 24 hours, ≥50% inhibition; read-out: MIC C. auris TDG1912
Outline: (§3)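 Overnight starter cultures were diluted to OD600 0.01 and added to serially diluted compound (128 to 0.25 μg/mL) in MOPS-buffered RPMI with 2% glucose, pH 7.0, giving 0.5-5×10^5 cells/mL. After 24 h at 37 °C, OD530 was measured and the ≥50% inhibition endpoint taken as MIC.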

C. tropicalis NCPF8760 = assay: as above; assay type: cell-based
Outline: as §3

Candida auris TDG1102 = assay: as above; assay type: cell-based; details: Candidozyma auris, TDG1102; Table 4, extended panel; 24 hours, ≥50% inhibition; read-out: MIC Candida auris TDG1102
Outline: as §3

Candida auris TDG2512 = assay: as above; assay type: cell-based; details: Candidozyma auris, TDG2512; Table 4, extended panel; 24 hours, ≥50% inhibition; read-out: MIC Candida auris TDG2512
Outline: as §3

C. auris 8971 = assay: as above; assay type: cell-based, Candida auris
Outline: as §2

C. auris 8977 = assay: as above; assay type: cell-based, Candida auris
Outline: as §2

C. auris 8984 = assay: as above; assay type: cell-based, Candida auris
Outline: as §2

C. albicans 3363 = assay: Candida albicans panel MIC; assay type: cell-based; details: Table 6, Candida albicans panel
Outline: (§4)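 Broth microdilution in RPMI 1640/MOPS/2% glucose, pH 7.0, compound 128–0.25 μg/mL, inoculum 0.5–5×10^5/mL. Plates held at 37 °C for 24 h and growth read at OD530. MIC is the lowest concentration giving ≥50% inhibition versus drug-free control.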

C. albicans 3645 = assay: Candida albicans panel MIC; assay type: cell-based; details: Table 6, Candida albicans panel
Outline: as §4

C. albicans 3880 = assay: Candida albicans panel MIC; assay type: cell-based; details: Table 6, Candida albicans panel
Outline: as §4

C. albicans 3881 = assay: Candida albicans panel MIC; assay type: cell-based; details: Table 6, Candida albicans panel
Outline: as §4

C. albicans 3882 = assay: Candida albicans panel MIC; assay type: cell-based; details: Table 6, Candida albicans panel
Outline: as §4

C. albicans 3990 = assay: Candida albicans panel MIC; assay type: cell-based; details: Table 6, Candida albicans panel
Outline: as §4

C. albicans 8112 = assay: Candida albicans panel MIC; assay type: cell-based; details: Table 6, Candida albicans panel
Outline: as §4

[1] = test system: Aspergillus fumigatus ATCC 13073; assay: Aspergillus panel MIC; assay type: cell-based; details: Table 8
Experimental: (§5) Starter cultures of fungal strains to be tested were grown in 3 mL of RPMI 2% glucose media incubated at 37° C. with shaking at 200 rpm overnight. The culture media used was 900 mL H2O; 10.4 g RPMI 1640 (with L-glutamine and a pH indicator but without bicarbonate); 34.5 g MOPS and 18 g glucose. The pH of the media was adjusted to 7.0 with 1 M sodium hydroxide.
(§6) Solutions of the compound to be tested were prepared by dissolving the compound in DMSO and subsequently into media to the desired concentrations. 200 μL of compound solution was then added to the wells of the 96-well plate using a serial dilution method row-by row of the plate to give a compound concentration gradient across the plate of from 128 μg/mL to 0.25 μg/mL. The last two rows of each plate were control rows containing the culture media alone and the media plus fungi.
(§7) The fungi starter cultures were diluted 1:10 in water in cuvettes. This was then further diluted to an optical density (OD600) of 0.01 in media. 100 μL of the fungi was added to each well giving a starting concentration of fungus of 0.5-5×10^5/mL. One species of fungus was used on each plate. The plates were then held at 37° C. for 24 hours.
(§8) A plate reader was used to measure growth in each well at OD530 nm and the MIC was determined for each test compound. The MIC is defined as the lowest concentration giving rise to inhibition of ≥50% of that of the drug-free control well containing the fungus and media.
(§9) The compound of Example 2 (which corresponds to compound number 2) was tested against a panel of Aspergillus strains using a method analogous to that described above for the Candida Panel.

[2] = test system: Aspergillus fumigatus ATCC 204305; assay: Aspergillus panel MIC; assay type: cell-based; details: Table 8
Experimental: as §5, §6, §7, §8, §9

[3] = test system: C. auris (e.g. TDG1912, TDG2506 or 8984); assay: microbe, parasite or virus in culture; assay type: cell-based, Candida auris; details: Candidozyma auris; efflux pump table; read-out: MIC Fluconazole, C. auris (e.g. TDG1912, TDG2506 or 8984)

OC(Cn1cncn1)(Cn1cncn1)c1ccc(F)cc1F [Fluconazole, fluconazole, reference compound]
MIC (C. glabrata NCPF8018; NCPF8018, read-out: MIC C. Glabrata NCPF8018): 0.5 to 4 µg/mL (≈ 1.63 to 13.1 µM) | MIC (C. glabrata NCPF8018; NCPF8018, read-out: MIC Fluconazole, C. glabrata 8018): > 128 µg/mL | MIC (C. glabrata NCPF8018; NCPF8018, Table 4, common panel, 24 hours, ≥50% inhibition, read-out: MIC C. glabrata NCPF8018): 0.5 to 4 µg/mL (≈ 1.63 to 13.1 µM) | MIC (C. krusei NCPF3876; NCPF3876, read-out: MIC C. Krusei NCPF3876): 0.5 to 8 µg/mL (≈ 1.63 to 26.1 µM) | MIC (C. krusei NCPF3876; NCPF3876, read-out: MIC Fluconazole, C. krusei 3876): 32 µg/mL (≈ 104 µM) | MIC (C. krusei NCPF3876; NCPF3876, Table 4, common panel, 24 hours, ≥50% inhibition, read-out: MIC C. krusei NCPF3876): 0.5 to 8 µg/mL (≈ 1.63 to 26.1 µM) | MIC (C. parapsilosis NCPF3209; NCPF3209, read-out: MIC C. Parapsilosis NCPF3209): ≤ 0.25 µg/mL | MIC (C. parapsilosis NCPF3209; NCPF3209, read-out: MIC Fluconazole, C. parapsilosis 3209): 0.5 µg/mL (≈ 1.63 µM) | MIC (C. parapsilosis NCPF3209; NCPF3209, Table 4, common panel, 24 hours, ≥50% inhibition, read-out: MIC C. parapsilosis NCPF3209): ≤ 0.25 µg/mL | MIC (Candida auris TDG2211; TDG2211, read-out: MIC C. auris 2211): 16 to 128 µg/mL (≈ 52.2 to 418 µM) | MIC (Candida auris TDG2211; TDG2211, Table 4, extended panel, 24 hours, ≥50% inhibition, read-out: MIC Candida auris TDG2211): 64 µg/mL (≈ 209 µM) | MIC (Candida auris TDG2506; TDG2506, read-out: MIC C. auris 2506): > 128 µg/mL | MIC (Candida auris TDG2506; TDG2506, Table 4, extended panel, 24 hours, ≥50% inhibition, read-out: MIC Candida auris TDG2506): > 128 µg/mL | MIC (C. auris TDG1912): > 128 µg/mL | MIC (C. tropicalis NCPF8760; NCPF8760, Table 4, common panel, 24 hours, ≥50% inhibition, read-out: MIC C. tropicalis NCPF8760): 4 to 8 µg/mL (≈ 13.1 to 26.1 µM) | MIC (C. tropicalis NCPF8760; NCPF8760, read-out: MIC C. Tropicalis NCPF8760): 4 to 8 µg/mL (≈ 13.1 to 26.1 µM) | MIC (Candida auris TDG1102): 64 µg/mL (≈ 209 µM) | MIC (Candida auris TDG2512): 16 µg/mL (≈ 52.2 µM) | MIC (C. auris 8971; Candidozyma auris, 8971, 24 h, read-out: MIC C. auris 8971): 16 µg/mL (≈ 52.2 µM) | MIC (C. auris 8971; Candidozyma auris, 8971, read-out: MIC C. auris 8971): 32 µg/mL (≈ 104 µM) | MIC (C. auris 8977; Candidozyma auris, 8977, 24 h, read-out: MIC C. auris 8977): 32 µg/mL (≈ 104 µM) | MIC (C. auris 8977; Candidozyma auris, 8977, read-out: MIC C. auris 8977): 16 µg/mL (≈ 52.2 µM) | MIC (C. auris 8984; Candidozyma auris, 8984, 24 h, read-out: MIC C. auris 8984): > 128 µg/mL | MIC (C. auris 8984; Candidozyma auris, 8984, read-out: MIC C. auris 8984): > 128 µg/mL | MIC (C. albicans 3363): 8 µg/mL (≈ 26.1 µM) | MIC (C. albicans 3645): ≤ 0.125 µg/mL | MIC (C. albicans 3880): 16 µg/mL (≈ 52.2 µM) | MIC (C. albicans 3881): 8 µg/mL (≈ 26.1 µM) | MIC (C. albicans 3882): 16 µg/mL (≈ 52.2 µM) | MIC (C. albicans 3990): 8 µg/mL (≈ 26.1 µM) | MIC (C. albicans 8112): 0.125 µg/mL (≈ 0.408 µM) | Minimum inhibitory concentration Aspergillus fumigatus ATCC 13073 [1]: >64 | Minimum inhibitory concentration Aspergillus fumigatus ATCC 204305 [2]: >64 | MIC [3]: > 128 µg/mL
